Data: US10100341B2, “Tailored oils produced from recombinant oleaginous microorganisms” (Corbion Biotech, Inc., priority 2011, dated 2018)

Legend:
Amphidinium sp. = conditions: 3 mg/ml G418; cited from earlier work
Navicula saprophila = conditions: artificial seawater medium, 100 ug/ml G418; cited from earlier work
Chlorella ellipsoidea = conditions: 30 ug/mL G418; cited from earlier work
[1] = test system: Symbiodinium microadriacticum; conditions: 3 mg/ml G418; cited from earlier work
Cyclotella cryptica = conditions: 50% artificial seawater medium, 100 ug/ml G418; cited from earlier work
Prototheca moriformis = assay: Growth in thiamine-free medium (thiamine auxotrophy complementation); assay type: cell-based; conditions: 2 μM precursor
Protocol: Thiamine prototrophy in Prototheca moriformis cells was examined using expression of exogenous THIC genes. […] To dissect the lesion responsible for thiamine auxotrophy at the biochemical level, the growth of Prototheca moriformis cells under five different regimes were examined:(1) in the presence of 2 μM thiamine hydrochloride; (2) without thiamine; (3) without thiamine, but with 2 μM hydroxyethyl thiazole (THZ); […] To observe the thiamine auxotrophy of wildtype Prototheca moriformis cells, it was necessary to first deplete cells of internal thiamine reserves. To test growth in medium without thiamine, cells were first grown to stationary phase in medium containing 2 μM thiamine and then the cells were diluted to an optical density at 750 nm (OD750) of approximately 0.05 in medium without thiamine. The diluted cells were then grown once more to stationary phase in medium without thiamine (about 2-3 days). These thiamine-depleted cells were used to inoculate cultures for growth studies in medium without thiamine Wildtype cells were grown in medium with glucose as the carbon source (with or without thiamine) and positive clones with the native transit peptide Coccomyxa C-169 THIC construct were grown in medium with sucrose as the sole carbon source. […]

Dunaliella salina = conditions: 60 mg/L chloramphenicol; cited from earlier work
Haematococcus pluvialis = conditions: 5 μM norflurazon; cited from earlier work
Gonium pectorale = conditions: 0.06 ug/ml paromomycin; cited from earlier work
[2] = test system: Chlamydomonas reinhardtii; conditions: 90 ug/ml spectinomycin; cited from earlier work
Rhodococcus opacus = conditions: 1 mg/ml thiostrepton; cited from earlier work
[3] = test system: Nannochloropsis sp. W2J3B; conditions: 2 ug/ml zeocin; cited from earlier work
[4] = test system: Phaeodactylum tricornutum; conditions: 50 ug/ml zeocin; cited from earlier work
Cylindrotheca fusiformis = conditions: 1 mg/ml zeocin; cited from earlier work
Volvox carteri = conditions: 1.5 ug/ml zeocin; cited from earlier work
Thalassiosira pseudonana = conditions: 10 ug/ml nourseothricin; cited from earlier work
Chaetoceros sp. = conditions: 500 ug/ml nourseothricin; cited from earlier work
Dunaliella tertiolecta = conditions: 1 mg/L phleomycin; cited from earlier work
[5] = test system: Closterium peracerosum-strigosum-littorale complex; conditions: 3 ug/ml phleomycin; cited from earlier work

Compound: CN[C@@H]1[C@@H](O)[C@@H](O[C@@H]2[C@@H](O)[C@H](O[C@H]3O[C@H]([C@@H](C)O)[C@@H](O)[C@H](O)[C@H]3N)[C@@H](N)C[C@H]2N)OC[C@]1(C)O [G418]
- propagation of untransformed cells in medium comprising the agent (Amphidinium sp.): unable to be propagated
- propagation of untransformed cells in medium comprising the agent (Navicula saprophila): unable to propagate
- propagation of untransformed cells in medium comprising the agent (Chlorella ellipsoidea): unable to be propagated
- propagation of untransformed cells in medium comprising the agent [1]: unable to be propagated
- propagation of untransformed cells in medium comprising the agent (Cyclotella cryptica): unable to propagate

Compound: Cc1ncc(CN)c(N)n1 [PYR, 2-methyl-4-amino-5-(aminomethyl)pyrimidine]
- thiamine pyrophosphate production / growth without thiamine with precursor (Prototheca moriformis): can only produce thiamine pyrophosphate (TPP) if the PYR precursor is provided

Compound: O=C(N[C@H](CO)[C@H](O)c1ccc([N+](=O)[O-])cc1)C(Cl)Cl [chloramphenicol]
- propagation of untransformed cells in medium comprising the agent (Dunaliella salina): unable to propagate

Compound: CNc1cnn(-c2cccc(C(F)(F)F)c2)c(=O)c1Cl [norflurazon]
- propagation of untransformed cells in medium comprising the agent (Haematococcus pluvialis): unable to propagate

Compound: NC[C@@H]1O[C@H](O[C@H]2[C@@H](O)[C@H](O[C@@H]3[C@@H](O)[C@H](N)C[C@H](N)[C@H]3O[C@H]3O[C@H](CO)[C@@H](O)[C@H](O)[C@H]3N)O[C@@H]2CO)[C@H](N)[C@@H](O)[C@@H]1O [paromomycin]
- propagation of untransformed cells in medium comprising the agent (Gonium pectorale): unable to propagate

Compound: CN[C@@H]1[C@H](O)[C@H](NC)[C@H]2O[C@@]3(O)C(=O)C[C@@H](C)O[C@H]3O[C@@H]2[C@H]1O [spectinomycin]
- propagation of untransformed cells in medium comprising the agent [2]: unable to propagate

Compound: C=C(NC(=O)C(=C)NC(=O)c1csc(C2=N[C@@H]3c4csc(n4)[C@H]4NC(=O)c5csc(n5)[C@H]([C@](C)(O)[C@@H](C)O)NC(=O)[C@H]5CSC(=N5)/C(=C/C)NC(=O)[C@H]([C@@H](C)O)NC(=O)c5csc(n5)[C@]3(CC2)NC(=O)[C@H](C)NC(=O)C(=C)NC(=O)[C@H](C)NC(=O)[C@H]([C@@H](C)CC)N[C@@H]2C=Cc3c([C@H](C)O)cc(nc3[C@H]2O)C(=O)O[C@@H]4C)n1)C(N)=O [thiostrepton]
- propagation of untransformed cells in medium comprising the agent (Rhodococcus opacus): unable to propagate

Compound: Cc1c(N)nc([C@H](CC(N)=O)NC[C@H](N)C(N)=O)nc1C(=O)N[C@H](C(=O)N[C@H](C)[C@@H](O)[C@H](C)C(=O)N[C@H](C(=O)NCCC1=N[C@@H](c2nc(C(=O)NCCCCN=C(N)N)cs2)CS1)[C@@H](C)O)[C@@H](O[C@@H]1O[C@@H](CO)[C@@H](O)[C@H](O)[C@@H]1O[C@H]1O[C@H](CO)[C@@H](O)[C@H](OC(N)=O)[C@@H]1O)c1cnc[nH]1 [zeocin]
- propagation of untransformed cells in medium comprising the agent [3]: unable to propagate
- propagation of untransformed cells in medium comprising the agent [4]: unable to propagate
- propagation of untransformed cells in medium comprising the agent (Cylindrotheca fusiformis): unable to propagate
- propagation of untransformed cells in medium comprising the agent (Volvox carteri): unable to be propagated

Compound: nourseothricin
- propagation of untransformed cells in medium comprising the agent (Thalassiosira pseudonana): unable to propagate
- propagation of untransformed cells in medium comprising the agent (Chaetoceros sp.): unable to propagate

Compound: phleomycin
- propagation of untransformed cells in medium comprising the agent (Dunaliella tertiolecta): unable to be propagated
- propagation of untransformed cells in medium comprising the agent [5]: unable to propagate
